Data from PubChem BioAssay AID330 (DTP/NCI, 2004).
Where “and” joins values, the source holds several entries; their conditions need not be identical. Equal entries are not always repeated. Inconclusive results and toxic doses are left out. The calls were made as follows: active = survival T/C of 150% or more; inactive = T/C below 125% in these data.

System: P388 leukemia ip, CD2F1 mice, survival T/C
Assay: NCI In Vivo Anticancer Drug Screen. Data for tumor model P388 Leukemia (intraperitoneal) in CD2F1 (CDF1) mice
Details: endpoint: median survival time, higher = longer survival
How it was run: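 Mice carrying the transplanted tumor received test compound or vehicle. Survival was recorded in each group, and the value is the treated-group measurement divided by that of the vehicle-treated control group.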

[1] = dose: 100.0 mg/kg/injection, schedule: Q01DX001 (ip), vehicle: saline with Tween-80
[2] = dose: 200.0 mg/kg/injection, schedule: Q01DX001 (ip), vehicle: saline with Tween-80
[3] = dose: 400.0 mg/kg/injection, schedule: Q01DX001 (ip), vehicle: saline with Tween-80
[4] = dose: 50.0 mg/kg/injection, schedule: Q01DX009 (ip), vehicle: Klucel (hydroxypropylcellulose) (HPC)
[5] = dose: 100.0 mg/kg/injection, schedule: Q01DX009 (ip), vehicle: Klucel (hydroxypropylcellulose) (HPC)
[6] = dose: 200.0 mg/kg/injection, schedule: Q01DX009 (ip), vehicle: Klucel (hydroxypropylcellulose) (HPC)
[7] = dose: 60.0 mg/kg/injection, schedule: Q01DX005 (ip), vehicle: saline with Tween-80
[8] = dose: 120.0 mg/kg/injection, schedule: Q01DX005 (ip), vehicle: saline with Tween-80
[9] = dose: 240.0 mg/kg/injection, schedule: Q01DX005 (ip), vehicle: saline with Tween-80
[10] = dose: 50.0 mg/kg/injection, schedule: Q01DX009 (ip), vehicle: suspension in saline
[11] = dose: 50.0 mg/kg/injection, schedule: Q01DX009 (ip), vehicle: saline
[12] = dose: 50.0 mg/kg/injection, schedule: Q01DX009 (ip), vehicle: saline with Tween-80
[13] = dose: 100.0 mg/kg/injection, schedule: Q01DX009 (ip), vehicle: saline with Tween-80
[14] = dose: 200.0 mg/kg/injection, schedule: Q01DX009 (ip), vehicle: saline with Tween-80
[15] = dose: 50.0 mg/kg/injection, schedule: Q01DX005 (ip), vehicle: saline with Tween-80
[16] = dose: 100.0 mg/kg/injection, schedule: Q01DX005 (ip), vehicle: saline with Tween-80
[17] = dose: 200.0 mg/kg/injection, schedule: Q01DX005 (ip), vehicle: saline with Tween-80

Measured: T/C

CC1=C2C(=CC(C)(CO)C2O)C(O)C(C)(O)C12CC2 (centres undefined)
inactive: dose: 0.78 mg/kg/injection, schedule: Q01DX009 (ip), vehicle: water 100 % of control | dose: 1.56 mg/kg/injection, schedule: Q01DX009 (ip), vehicle: water 114 % of control | dose: 3.13 mg/kg/injection, schedule: Q01DX009 (ip), vehicle: water 105 % of control | dose: 6.25 mg/kg/injection, schedule: Q01DX009 (ip), vehicle: water 112 % of control | dose: 12.5 mg/kg/injection, schedule: Q01DX009 (ip), vehicle: water 118 % of control

Cc1ccc(N=c2oc(-c3ccccc3)cs2)cc1
inactive: [1] 90 % of control | [2] 89 % of control | [3] 88 % of control

CC1=COC(C)(C2NC(C)(C)CC(C)O2)CC1 (centres undefined)
inactive: dose: 50.0 mg/kg/injection, schedule: Q01DX005 (ip), vehicle: saline 107 % of control | dose: 100.0 mg/kg/injection, schedule: Q01DX005 (ip), vehicle: saline 103 % of control | dose: 200.0 mg/kg/injection, schedule: Q01DX005 (ip), vehicle: saline 102 % of control

O=C1CCC(=O)N1SCc1cccc2ccccc12
inactive: [4] 115 % of control | [5] 93 % of control | [6] 102 % of control

CC1(C)CCCC2(C)C1CCC13OC1(C=O)C(C=O)=CCC23 (centres undefined)
inactive: dose: 1.25 mg/kg/injection, schedule: Q01DX005 (ip), vehicle: saline + alcohol 99 % of control | dose: 2.5 mg/kg/injection, schedule: Q01DX005 (ip), vehicle: saline + alcohol 98 % of control | dose: 5.0 mg/kg/injection, schedule: Q01DX005 (ip), vehicle: saline + alcohol 99 % of control | dose: 10.0 mg/kg/injection, schedule: Q01DX005 (ip), vehicle: saline + alcohol 99 % of control | dose: 20.0 mg/kg/injection, schedule: Q01DX005 (ip), vehicle: saline + alcohol 104 % of control

c1ccc(N=NC(c2ccccc2)(c2ccccc2)c2ccccc2)cc1
inactive: dose: 6.25 mg/kg/injection, schedule: Q01DX009 (ip), vehicle: Klucel (hydroxypropylcellulose) (HPC) 110 % of control | dose: 12.5 mg/kg/injection, schedule: Q01DX009 (ip), vehicle: Klucel (hydroxypropylcellulose) (HPC) 110 % of control | dose: 25.0 mg/kg/injection, schedule: Q01DX009 (ip), vehicle: Klucel (hydroxypropylcellulose) (HPC) 99 % of control | [4] 107 % of control

CC(=O)C(CSC(=O)c1ccccc1)C(C)=O
inactive: dose: 100.0 mg/kg/injection, schedule: Q04DX002 (ip), vehicle: Klucel (hydroxypropylcellulose) (HPC) 100 % of control | dose: 200.0 mg/kg/injection, schedule: Q04DX002 (ip), vehicle: Klucel (hydroxypropylcellulose) (HPC) 100 % of control

Cc1c2oc3c(C)ccc(C(=O)NCCCN4CCN(C)CC4)c3nc-2c(C(=O)NCCCN2CCN(C)CC2)c(N)c1=O
inactive: dose: 6.25 mg/kg/injection, schedule: Q04DX003 (ip), vehicle: saline with Tween-80 106 % of control | dose: 12.5 mg/kg/injection, schedule: Q04DX003 (ip), vehicle: saline with Tween-80 104 % of control | dose: 25.0 mg/kg/injection, schedule: Q04DX003 (ip), vehicle: saline with Tween-80 114 % of control and 117 % of control | dose: 100.0 mg/kg/injection, schedule: Q04DX003 (ip), vehicle: saline with Tween-80 123 % of control

CS(=O)(=O)N1COC(=O)[C@@H]1c1ccccc1
inactive: [7] 100 % of control | [8] 101 % of control | [9] 101 % of control

O=C1OCCOCCOCCOCCOC(=O)c2cncc1c2
inactive: dose: 100.0 mg/kg/injection, schedule: Q01DX001 (ip), vehicle: Klucel (hydroxypropylcellulose) (HPC) 101 % of control | dose: 200.0 mg/kg/injection, schedule: Q01DX001 (ip), vehicle: Klucel (hydroxypropylcellulose) (HPC) 108 % of control | dose: 400.0 mg/kg/injection, schedule: Q01DX001 (ip), vehicle: Klucel (hydroxypropylcellulose) (HPC) 105 % of control

C/C=C/C(=O)OC(C)CCC(CC)CCCC (centres undefined)
inactive: [5] 100 % of control | [6] 96 % of control | dose: 400.0 mg/kg/injection, schedule: Q01DX009 (ip), vehicle: Klucel (hydroxypropylcellulose) (HPC) 91 % of control

FS(F)(F)(F)(F)c1cccc(NC(=S)SCc2ccc3c(c2)OCO3)c1
inactive: [10] 102 % of control | dose: 100.0 mg/kg/injection, schedule: Q01DX009 (ip), vehicle: suspension in saline 106 % of control | dose: 200.0 mg/kg/injection, schedule: Q01DX009 (ip), vehicle: suspension in saline 102 % of control

Cc1ccc(I)c(C(C)(C)O)c1
inactive: [4] 100 % of control | [5] 95 % of control | [6] 97 % of control

CN(C/C=C/CN(C)C(=S)Nc1ccccc1)C(=S)Nc1ccccc1
inactive: dose: 12.5 mg/kg/injection, schedule: Q01DX009 (ip), vehicle: saline 95 % of control | dose: 25.0 mg/kg/injection, schedule: Q01DX009 (ip), vehicle: saline 106 % of control | dose: 25.0 mg/kg/injection, schedule: Q01DX009 (ip), vehicle: suspension in saline 91 % of control | [11] 90 % of control | [10] 86 % of control and 87 % of control

COc1ccc(/C(Cc2ccccc2)=N/NS(=O)(=O)c2ccc(C)cc2)cc1
inactive: [11] 89 % of control | dose: 100.0 mg/kg/injection, schedule: Q01DX009 (ip), vehicle: saline 101 % of control | dose: 200.0 mg/kg/injection, schedule: Q01DX009 (ip), vehicle: saline 98 % of control

O=C1c2ccccc2C(=O)C2C3C=CC(CC3)C12 (centres undefined)
inactive: dose: 50.0 mg/kg/injection, schedule: Q01DX005 (ip), vehicle: Klucel (hydroxypropylcellulose) (HPC) 105 % of control | dose: 100.0 mg/kg/injection, schedule: Q01DX005 (ip), vehicle: Klucel (hydroxypropylcellulose) (HPC) 102 % of control | dose: 200.0 mg/kg/injection, schedule: Q01DX005 (ip), vehicle: Klucel (hydroxypropylcellulose) (HPC) 99 % of control

Cc1ccc(-c2cnc3[nH]c(=O)[nH]c(=O)c3n2)cc1
inactive: dose: 100.0 mg/kg/injection, schedule: Q04DX002 (ip), vehicle: saline 97 % of control | dose: 200.0 mg/kg/injection, schedule: Q04DX002 (ip), vehicle: saline 106 % of control | dose: 400.0 mg/kg/injection, schedule: Q04DX002 (ip), vehicle: saline 91 % of control

CC1=CC=CC(C)(C(Cl)Cl)C1=O (centres undefined)
inactive: [12] 109 % of control | [13] 104 % of control | [14] 109 % of control

COC(=O)CCCCCC(O)C1CCC2OC(=O)CC21C (centres undefined)
inactive: [13] 118 % of control | [14] 100 % of control | dose: 400.0 mg/kg/injection, schedule: Q01DX009 (ip), vehicle: saline with Tween-80 100 % of control

Cc1noc(/C=C\c2ccccc2O)c1[N+](=O)[O-]
inactive: [15] 92 % of control | [16] 99 % of control | [17] 97 % of control

Nc1ncc(CCCCc2ccccc2)c(=O)[nH]1
inactive: [1] 100 % of control | [2] 104 % of control | [3] 100 % of control

CC1Cn2c(nnc2-c2ccccc2O)S1 (centres undefined)
inactive: [7] 96 % of control | [8] 100 % of control | [9] 101 % of control

CC1OCC(O)C(C(O)C(=O)CN(Cc2ccccc2)Cc2ccccc2)O1 (centres undefined)
inactive: [15] 99 % of control | [16] 99 % of control | [17] 91 % of control

O=[N+]([O-])c1ccc(N/N=C\c2c(Cl)[nH]c3ccccc23)c([N+](=O)[O-])c1
inactive: [12] 93 % of control | [13] 93 % of control | [14] 87 % of control
